Marks after values point to notes of the source that are not given here. Where a SMILES comes first, the peptide text is derived from it.
Legend:
[1] = test system: glucose loaded normal mice; test: Glucose loading test on normal mice after single administration; format: in vivo, Kunming mice; conditions: for Blood glucose reduction rate (%) / Blood glucose level after glucose loading: 30 nmol/kg single dose; for Blood glucose reduction rate (%): after glucose loading, versus model control group; for Blood glucose level after glucose loading: glucose 2.5 g/kg intragastric 60 min after administration, measured 30 min after loading; for Blood glucose level after glucose loading / Fasting blood glucose level: n=5; for Fasting blood glucose level: normal mice fasted 6 h, 30 nmol/kg group
Procedure: The hypoglycemic action of each compound of Example 1 was assessed by a glucose loading test on normal mice after single administration.
Method: Kunming mice (male, with a weight of 20-22 g) were acclimated in a barrier environment animal room for 3 days, divided into a blank control group, a model control group, a positive control group, and test compound groups, 5 mice in each group, and fasted for 6 h. Saline was administered to each mouse in the blank control group and the model control group, the compounds and a positive control drug were respectively administered to each mouse in the test compound groups and the positive control group at a dose of 30 nmol/kg, and the positive control drug was semaglutide. 60 min after administration, glucose was intragastrically administered to each mouse in the model control group, the positive control group, and the test compound groups at a dose of 2.5 g/kg (0.01 mL·g^−1 weight), distilled water was administered to each mouse in the blank control group, and blood glucose levels were determined 30 min after glucose loading.

[2] = test system: diet-induced obesity (DIO) mice; test: Obese (DIO) model mice, 23 days of successive administration; format: in vivo, C57BL/6J Gpt mice
Text: C57BL/6J Gpt mice (purchased from GemPharmatech (Jiangsu) Co., Ltd.) (6-8-week-old) were fed with H10060 high-fat diet (purchased from Beijing HFK Bioscience Co., Ltd.) to obtain diet-induced obesity (DIO) models, mice in a blank control group (n=5) were fed with standard diets, and all the mice were fed for 11 weeks after being purchased. One day before the first administration, the mice in the model group were randomly divided into 5 groups according to their weights (within a range of 39.5-49.5 g), i.e., a model control group, a positive control group, and test compound groups (dgc005, dgc016, and dgc020), respectively, 5 mice in each group, which were administered every day by subcutaneous injection. Saline was subcutaneously injected in the blank control group and the model control group every day. The administration was performed for 23 days. The positive control drug and the test compounds were administered at a dose of 30 nmol/kg, and the administration volume for each group was 0.005 mL/g weight. The mice were weighed before each administration, and 72-h food intake was weighed every three days. The mice fasted for 16 h before the last administration, fasting blood glucose levels were determined, blood was sampled from the orbital venous plexus to determine triglycerides and total cholesterol, and the liver was taken out for pathological section observation.
The liver of each C576L/6 mouse in the groups was fixed with 12% formaldehyde and prepared into a specimen, and the tissue block was repaired, dehydrated with graded alcohol, embedded in paraffin, stained with HE, and examined under a light microscope.

[3] = test system: diet-induced obesity (DIO) mice; test: DIO model mice, weight after 2 weeks of administration; format: in vivo, C57BL/6N mice; conditions: 30 nmol/kg s.c. once a day, 14 days
Text: Method: C57BL/6N mice were fed with H10060 high-fat diets to obtain diet-induced obesity (DIO) models, and mice in a control group (n=5) were fed with standard diets. One day before the first administration, the mice in the model group were randomly divided into 6 groups according to their weights (within a range of 40.5-50.5 g), i.e., a model control group, a positive control group, and test compound groups (dgc003, dgc004, dgc010, and dgc017), respectively, 5 mice in each group, which were administered once a day by subcutaneous injection. Saline was subcutaneously injected into each mouse in the blank control group and the model control group every day. The administration was performed for 14 days. The positive control drug and the test compounds were administered at a dose of 30 nmol/kg, and the administration volume for each group was 0.005 mL/g weight. The mice were weighed before each administration, and 72-h food intake was weighed every three days.

[4] = test system: diet-induced obesity (DIO) mice; test: DIO mice, weight and blood glucose after multiple administrations at different doses; format: in vivo, C57BL/6N mice; conditions: for Fasting blood glucose (mmol/L) before the last administration / Blood glucose level (mmol/L) 0.5 h after glucose loading / Glycemic load reduction rate: Day 22; for Fasting blood glucose (mmol/L) before the last administration: fasted 16 h; for Blood glucose level (mmol/L) 0.5 h after glucose loading: glucose 1 g/kg intragastric 30 min after administration; for Glycemic load reduction rate: versus model control group; for Reduction rate of weight without fasting on day 21 compared to day 0: n=5
Text: 40 C57BL/6N mice were purchased from Beijing Vital River Laboratory Animal Technology Co., Ltd. Mice in a model group (n=35) were fed with H10060 high-fat diets to obtain diet-induced obesity (DIO) models, mice in a blank control group (n=5) were fed with standard diets, and all the mice were fed for 36 weeks. On the day of the first administration, the mice in the model group were randomly divided into 7 groups according to their weights (within a range of 45-60 g), i.e., a model control group, positive control groups (semaglutide at doses of 10 nmol/kg and 30 nmol/kg, respectively), and test compound groups (dgc005 and dgc016 at doses of 10 nmol/kg and 30 nmol/kg, respectively), 5 mice in each group. The positive control drug and the test compounds were respectively subcutaneously injected into each mouse in the positive control groups and the test compound groups every day, saline was subcutaneously injected into each mouse in the blank control group and the model control group, and the administration was performed for 22 days (the administration volume for each group was 0.005 mL/g weight). The mice were weighed before each administration, and 72-h food intake was weighed every three days. The mice fasted for 16 h before the last administration, and 30 min after administration, a glucose solution (1 g/kg, the administration volume was 0.01 mL/g weight) was intragastrically administered to each mouse for glucose tolerance test. Blood glucose levels were determined 0.5 h after glucose loading.

GLP-1R = target: T1, GLP-1R (Homo sapiens, UniProt P43220); test: GLP-1 receptor-mediated cAMP production in vitro; format: cell-based; conditions: HEK293 cell line stably expressing GLP-1R
T1 construct: expressed in transfected cells
T1 sequence (P43220 24-463, species assumed): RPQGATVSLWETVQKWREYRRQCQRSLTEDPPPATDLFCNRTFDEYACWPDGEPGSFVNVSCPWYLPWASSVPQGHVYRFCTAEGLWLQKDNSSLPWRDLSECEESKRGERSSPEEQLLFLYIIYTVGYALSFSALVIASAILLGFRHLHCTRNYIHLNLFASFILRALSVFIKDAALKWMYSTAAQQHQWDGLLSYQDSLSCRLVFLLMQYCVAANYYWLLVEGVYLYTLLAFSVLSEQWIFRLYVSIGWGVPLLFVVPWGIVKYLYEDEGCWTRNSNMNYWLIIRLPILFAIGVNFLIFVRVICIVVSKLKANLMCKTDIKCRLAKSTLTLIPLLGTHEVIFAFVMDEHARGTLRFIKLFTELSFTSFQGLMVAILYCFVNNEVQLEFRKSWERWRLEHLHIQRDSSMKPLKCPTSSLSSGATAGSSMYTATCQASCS
Procedure, shortened: (§1)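 HEK293 cells stably expressing human GLP-1R or GCGR are stimulated with compound for 30 min in the dark in serum-free medium with 0.5 mM IBMX, with test dilutions spanning 1 μM down to 10^−3 nM. cAMP is detected after a 60 min room-temperature reaction as the 665/615 nm ratio.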

GCGR = target: T2, GCGR (Homo sapiens, UniProt P47871); test: GC receptor-mediated cAMP production in vitro; format: cell-based; conditions: HEK293 cell line stably expressing GCGR
T2 construct: expressed in transfected cells
T2 sequence (P47871 26-477, species assumed): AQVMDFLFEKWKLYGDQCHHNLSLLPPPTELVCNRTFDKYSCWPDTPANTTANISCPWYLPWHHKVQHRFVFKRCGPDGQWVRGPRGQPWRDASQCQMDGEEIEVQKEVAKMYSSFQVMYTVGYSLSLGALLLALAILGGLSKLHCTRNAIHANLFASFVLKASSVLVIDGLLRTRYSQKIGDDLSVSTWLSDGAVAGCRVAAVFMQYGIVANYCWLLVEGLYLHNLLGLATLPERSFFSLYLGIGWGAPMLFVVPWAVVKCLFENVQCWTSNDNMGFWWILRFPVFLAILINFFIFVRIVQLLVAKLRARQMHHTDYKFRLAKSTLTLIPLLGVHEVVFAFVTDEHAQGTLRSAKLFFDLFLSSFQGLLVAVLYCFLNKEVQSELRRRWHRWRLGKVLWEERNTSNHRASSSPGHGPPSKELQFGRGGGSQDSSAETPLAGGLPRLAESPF
Procedure, shortened: as §1

[5] = after 23 days of administration, 30 nmol/kg s.c. daily, n=5

Compound	Blood glucose reduction rate (%) [1] [%]	Blood glucose level after glucose loading [1]	Fasting blood glucose level [1] [mmol/L]	Weight decreasing rate by the last administration [3] [%]	EC50 (GLP-1R) [nM]	EC50 (GCGR) [nM]	further results
semaglutide [Positive control group, reference compound]	67.18	5.58 ± 1.55**^ mmol/L	3.78 ± 1.28	12.9	–	–	Fasting blood glucose (mmol/L) before the last administration ([2]; 30 nmol/kg s.c. daily, 23 days, fasted 16 h, n=5): 4.48 ± 0.84 mmol/L; Weight decreasing rate ([2]; 30 nmol/kg s.c. every day, without fasting before the last administration compared to day 1): 20.9%; Examination of liver pathological section ([2]; 23 days, 30 nmol/kg s.c. daily, HE stain, 2 animals): mild to moderate lesions; TC (total cholesterol) [2, 5]: 3.97 ± 0.52^Δ mmol/L; TG (triglycerides) [2, 5]: 0.90 ± 0.13**^ΔΔ mmol/L; 72-h food intake ([2]; day 4 of administration, 30 nmol/kg s.c. daily): 3.50 g/mouse; 72-h food intake ([2]; day 7 of administration, 30 nmol/kg s.c. daily): 5.80 g/mouse; 72-h food intake ([2]; day 10 of administration, 30 nmol/kg s.c. daily): 5.40 g/mouse; 72-h food intake ([2]; day 13 of administration, 30 nmol/kg s.c. daily): 5.50 g/mouse; Fasting blood glucose (mmol/L) before the last administration ([4]; 10 nmol/kg s.c. daily): 5.54 ± 1.11 mmol/L; Blood glucose level (mmol/L) 0.5 h after glucose loading ([4]; 10 nmol/kg s.c. daily): 7.06 ± 1.15 mmol/L; Glycemic load reduction rate ([4]; 10 nmol/kg s.c. daily): 32.89; Reduction rate of weight without fasting on day 21 compared to day 0 ([4]; 10 nmol/kg s.c. every day): 15.28%; Fasting blood glucose (mmol/L) before the last administration ([4]; 30 nmol/kg s.c. daily): 5.56 ± 0.91 mmol/L; Blood glucose level (mmol/L) 0.5 h after glucose loading ([4]; 30 nmol/kg s.c. daily): 8.20 ± 0.87 mmol/L; Glycemic load reduction rate ([4]; 30 nmol/kg s.c. daily): 22.05; Reduction rate of weight without fasting on day 21 compared to day 0 ([4]; 30 nmol/kg s.c. every day): 18.83%
CCCCCCCCCCCCCCCC(=O)N[C@@H](CCC(=O)NCCCC[C@H](NC(=O)[C@H](C)NC(=O)[C@H](C)NC(=O)[C@H](CCCNC(=N)N)NC(=O)[C@H](CCC(=O)O)NC(=O)[C@H](CCC(=O)O)NC(=O)[C@H](CC(C)C)NC(=O)[C@H](Cc1ccc(O)cc1)NC(=O)[C@H](CCCCN)NC(=O)[C@H](CO)NC(=O)[C@H](Cc1ccc(O)cc1)NC(=O)[C@H](CC(=O)O)NC(=O)[C@H](CO)NC(=O)[C@@H](NC(=O)[C@H](Cc1ccccc1)NC(=O)[C@@H](NC(=O)CNC(=O)[C@H](CCC(N)=O)NC(=O)C(C)(C)NC(=O)[C@@H](N)Cc1c[nH]cn1)[C@@H](C)O)[C@@H](C)O)C(=O)N[C@@H](CCC(=O)O)C(=O)N[C@@H](Cc1ccccc1)C(=O)N[C@H](C(=O)N[C@@H](C)C(=O)N[C@@H](Cc1c[nH]c2ccccc12)C(=O)N[C@@H](CC(C)C)C(=O)N[C@@H](CCC(=O)O)C(=O)N[C@@H](C)C(=O)NCC(=O)NCC(N)=O)[C@@H](C)CC)C(=O)O [dgc004] (HELM PEPTIDE1{H.[Aib].Q.G.T.F.T.S.D.Y.S.K.Y.L.E.E.R.A.A.K.E.F.I.A.W.L.E.A.G.G.[am]}|PEPTIDE2{[CCCCCCCCCCCCCCCC(=O)[*:2]].[gGlu]}$PEPTIDE1,PEPTIDE2,20:R3-2:R2$$$V2.0; N-terminus assumed)	50.24	8.46 ± 2.28 mmol/L	3.42 ± 0.85	19.9	0.113	5.84	–
CCCCCCCCCCCCCCCC(=O)N[C@@H](CCC(=O)N[C@@H](CCC(=O)NCCCC[C@H](NC(=O)[C@H](C)NC(=O)[C@H](C)NC(=O)[C@H](CCCNC(=N)N)NC(=O)[C@H](CCC(=O)O)NC(=O)[C@H](CCC(=O)O)NC(=O)[C@H](CC(C)C)NC(=O)[C@H](Cc1ccc(O)cc1)NC(=O)[C@H](CCCCN)NC(=O)[C@H](CO)NC(=O)[C@H](Cc1ccc(O)cc1)NC(=O)[C@H](CC(=O)O)NC(=O)[C@H](CO)NC(=O)[C@@H](NC(=O)[C@H](Cc1ccccc1)NC(=O)[C@@H](NC(=O)CNC(=O)[C@H](CCC(N)=O)NC(=O)C(C)(C)NC(=O)[C@@H](N)Cc1c[nH]cn1)[C@@H](C)O)[C@@H](C)O)C(=O)N[C@@H](CCC(=O)O)C(=O)N[C@@H](Cc1ccccc1)C(=O)N[C@H](C(=O)N[C@@H](C)C(=O)N[C@@H](Cc1c[nH]c2ccccc12)C(=O)N[C@@H](CC(C)C)C(=O)N[C@@H](CCC(=O)O)C(=O)N[C@@H](CO)C(=O)NCC(=O)NCC(N)=O)[C@@H](C)CC)C(=O)O)C(=O)O [dgc010] (HELM PEPTIDE1{H.[Aib].Q.G.T.F.T.S.D.Y.S.K.Y.L.E.E.R.A.A.K.E.F.I.A.W.L.E.S.G.G.[am]}|PEPTIDE2{[CCCCCCCCCCCCCCCC(=O)[*:2]].[gGlu].[gGlu]}$PEPTIDE1,PEPTIDE2,20:R3-3:R2$$$V2.0; N-terminus assumed)	52.35	8.10 ± 1.13 mmol/L	3.78 ± 0.84	16.4	0.537	0.614	–
CCCCCCCCCCCCCCCC(=O)N[C@@H](CCC(=O)NCCCC[C@H](NC(=O)[C@H](C)NC(=O)[C@H](C)NC(=O)[C@H](CCCNC(=N)N)NC(=O)[C@H](CCC(=O)O)NC(=O)[C@H](CC(=O)O)NC(=O)[C@H](CC(C)C)NC(=O)[C@H](Cc1ccc(O)cc1)NC(=O)[C@H](CCCCN)NC(=O)[C@H](CO)NC(=O)[C@H](Cc1ccc(O)cc1)NC(=O)[C@H](CC(=O)O)NC(=O)[C@H](CO)NC(=O)[C@@H](NC(=O)[C@H](Cc1ccccc1)NC(=O)[C@@H](NC(=O)CNC(=O)[C@H](CCC(N)=O)NC(=O)C(C)(C)NC(=O)[C@@H](N)Cc1c[nH]cn1)[C@@H](C)O)[C@@H](C)O)C(=O)N[C@@H](CCC(=O)O)C(=O)N[C@@H](Cc1ccccc1)C(=O)N[C@H](C(=O)N[C@@H](C)C(=O)N[C@@H](Cc1c[nH]c2ccccc12)C(=O)N[C@@H](CC(C)C)C(=O)N[C@@H](CCC(=O)O)C(=O)N[C@@H](C)C(=O)NCC(=O)NCC(N)=O)[C@@H](C)CC)C(=O)O [dgc003] (HELM PEPTIDE1{H.[Aib].Q.G.T.F.T.S.D.Y.S.K.Y.L.D.E.R.A.A.K.E.F.I.A.W.L.E.A.G.G.[am]}|PEPTIDE2{[CCCCCCCCCCCCCCCC(=O)[*:2]].[gGlu]}$PEPTIDE1,PEPTIDE2,20:R3-2:R2$$$V2.0; N-terminus assumed)	48.12	8.82 ± 1.63 mmol/L	4.20 ± 0.97	16.7	0.291	1.04	–
